Our source for the IC50 values is patent publication US11285156B2, “Substituted piperazines as KRAS G12C inhibitors” (Amgen Inc., priority 2018, dated 2022).

Where two headings read alike, the source gives them in different places. A value given as a limit tells only on which side of the number the result lay.

The term IC50 denotes the concentration needed to halve the response being measured.

The test system of assay [1] is Phosphorylation of ERK1/2 in A549 cells. Description: Phospho-ERK1/2 MSD assay in A549 cells. The class given is cell-based. The conditions noted are these: read-out: p-ERK IC50 (2 h, A549; μM), 2 h compound treatment, A549 cells, EGF stimulated. In outline: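 Readout: MSD phospho-ERK1/2 signal after compound (2 or 4 h) and 10 min EGF stimulation at 10 ng/mL.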
Assay [2] deals with GDP-bound KRAS protein (aa 1-169), containing both G12C and C118A amino acid substitutions (Homo sapiens (Human), UniProt P01116, C118A/G12C). Put plainly: Coupled nucleotide exchange assay (SOS-mediated nucleotide exchange, AlphaScreen). The class given is biochemical. The conditions noted are these: read-out: Coupled exchange IC50 (5 min; μM); 5 min compound pre-incubation.
Assay [3] has as its system Phosphorylation of ERK1/2 in MIA PaCa-2 cells. Description: Phospho-ERK1/2 MSD assay in MIA PaCa-2 cells. The class given is cell-based. The conditions noted are these: read-out: p-ERK IC50 (2 h, MiaPaCa-2; μM), 2 h compound treatment, MIA PaCa-2 cells, EGF stimulated. In outline:
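Phospho-ERK1/2 measured by MSD electrochemiluminescence kit in RIPA lysates of MIA PaCa-2 cells. Cells were treated with compound titrations for 2 or 4 h at 37 °C, 5% CO2, followed by a 10 min pulse of 10 ng/mL EGF.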

Chain of GDP-bound KRAS protein (aa 1-169), containing both G12C and C118A amino acid substitutions (P01116 other isoform, or with tags, fused parts or gaps G12C/C118A): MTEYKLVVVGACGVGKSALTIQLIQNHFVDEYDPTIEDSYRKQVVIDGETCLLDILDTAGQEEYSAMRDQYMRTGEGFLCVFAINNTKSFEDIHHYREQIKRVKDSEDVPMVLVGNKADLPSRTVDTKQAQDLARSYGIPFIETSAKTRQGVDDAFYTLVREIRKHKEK

With `C=CC(=O)N1C[C@H](C)N(c2nc(=O)n(-c3c(C)ccnc3C(C)C)c3nc(-c4cccc(F)c4F)c(Cl)cc23)C[C@H]1C` (atropisomer, axis not shown; (M)) [Example 92-66, (M)-6-Chloro-7-(2,3-difluorophenyl)-4-[(2S,5R)-2,5-dimethyl-4-prop-2-enoyl-piperazin-1-yl]-1-(2-isopropyl-4-methyl-3-pyridyl)pyrido [2,3-d]pyrimidin-2-one], the IC50 was above 7.5 µM in assay [1] (Homo sapiens, A549, 2 h); 0.034 µM in assay [2]; 0.033 µM in assay [3] (Homo sapiens, MIA PaCa-2, 2 h).

Take `C=CC(=O)N1C[C@H](C)N(c2nc(=O)n(-c3c(C)ccnc3C(C)C)c3nc(-c4ccccc4OC)c(Cl)cc23)C[C@H]1C` (atropisomer, axis not shown; (M)) [Example 92-67, (M)-6-Chloro-4-[(2S,5R)-2,5-dimethyl-4-prop-2-enoyl-piperazin-1-yl]-1-(2-isopropyl-4-methyl-3-pyridyl)-7-(2-methoxyphenyl) pyrido[2,3-d]pyrimidin-2-one]: the IC50 is above 7.5 µM in assay [1] (Homo sapiens, A549, 2 h); 0.13 µM in assay [2]; 0.062 µM in assay [3] (Homo sapiens, MIA PaCa-2, 2 h).

Take `C=CC(=O)N1C[C@H](C)N(c2nc(=O)n(-c3c(C)ccnc3C(C)C)c3nc(-c4sccc4C)c(Cl)cc23)C[C@H]1C` (atropisomer, axis not shown; (M)) [Example 93-1, (M)-6-Chloro-4-[(2S,5R)-2,5-dimethyl-4-prop-2-enoyl-piperazin-1-yl]-1-(2-isopropyl-4-methyl-3-pyridyl)-7-(3-methyl-2-thienyl)pyrido[2,3-d]pyrimidin-2-one]: the values for the IC50 in assay [1], in assay [2] and in assay [3] were above 7.5 µM, 0.055 µM and 0.097 µM, respectively.

As to `C=CC(=O)N1C[C@H](C)N(c2nc(=O)n(-c3c(C)ccnc3C(C)C)c3nc(-c4ccccc4C(C)C)c(F)cc23)C[C@H]1C` (atropisomer, axis not shown; (M)) [Example 94-1, (M)-4-[(2S,5R)-2,5-Dimethyl-4-prop-2-enoyl-piperazin-1-yl]-6-fluoro-1-(2-isopropyl-4-methyl-3-pyridyl)-7-(2-isopropylphenyl)pyrido[2,3-d]pyrimidin-2-one], the values for the IC50 in assay [1], in assay [2] and in assay [3] were above 7.5 µM, 0.077 µM and 0.107 µM, respectively.

In the case of `C=CC(=O)N1C[C@H](C)N(c2nc(=O)n(-c3c(C)ccnc3C(C)C)c3nc(-c4cc(C)ccc4F)c(F)cc23)C[C@H]1C` (atropisomer, axis not shown; (M)) [Example 94-4, (M)-4-[(2S,5R)-2,5-dimethyl-4-prop-2-enoyl-piperazin-1-yl]-6-fluoro-7-(2-fluoro-5-methyl-phenyl)-1-(2-isopropyl-4-methyl-3-pyridyl)pyrido [2,3-d]pyrimidin-2-one], the IC50 in assay [1] (Homo sapiens, A549, 2 h) is above 7.5 µM; in assay [2] it was 0.222 µM; in assay [3] (Homo sapiens, MIA PaCa-2, 2 h) it was 0.218 µM.

As to `C=CC(=O)N1C[C@H](C)N(c2nc(=O)n(-c3c(C)ccnc3C(C)C)c3nc(-c4cc(Cl)ccc4F)c(F)cc23)C[C@H]1C` (atropisomer, axis not shown; (M)) [Example 94-5, (M)-7-(5-chloro-2-fluoro-phenyl)-4-[(2S,5R)-2,5-dimethyl-4-prop-2-enoyl-piperazin-1-yl]-6-fluoro-1-(2-isopropyl-4-methyl-3-pyridyl)pyrido [2,3-d]pyrimidin-2-one], the IC50 was above 7.5 µM in assay [1] (Homo sapiens, A549, 2 h); 0.708 µM in assay [2]; 0.265 µM in assay [3] (Homo sapiens, MIA PaCa-2, 2 h).

In the case of `C=CC(=O)N1C[C@H](C)N(c2nc(=O)n(-c3c(C)ccnc3C(C)C)c3nc(-c4ccccc4C)c(F)cc23)C[C@H]1C` (atropisomer, axis not shown; (M)) [Example 94-8, (M)-4-[(2S,5R)-2,5-Dimethyl-4-prop-2-enoyl-piperazin-1-yl]-6-fluoro-1-(2-isopropyl-4-methyl-3-pyridyl)-7-(o-tolyl)pyrido[2,3-d]pyrimidin-2-one], the IC50 in assay [1] (Homo sapiens, A549, 2 h) is above 7.5 µM; in assay [2], 0.255 µM; in assay [3] (Homo sapiens, MIA PaCa-2, 2 h) it was 0.131 µM.

For the molecule `C=CC(=O)N1C[C@H](C)N(c2nc(=O)n(-c3c(C)ccnc3C(C)C)c3nc(-c4c(C)cccc4F)c(F)cc23)C[C@H]1C` (atropisomer, axis not shown; (M)) [Example 94-10, (M)-4-[(2S,5R)-2,5-Dimethyl-4-prop-2-enoyl-piperazin-1-yl]-6-fluoro-7-(2-fluoro-6-methyl-phenyl)-1-(2-isopropyl-4-methyl-3-pyridyl)pyrido [2,3-d]pyrimidin-2-], the IC50 is above 7.5 µM in assay [1] (Homo sapiens, A549, 2 h); 0.137 µM in assay [2]; 0.079 µM in assay [3] (Homo sapiens, MIA PaCa-2, 2 h).

`C=CC(=O)N1C[C@H](C)N(c2nc(=O)n(-c3c(C)ccnc3C(C)C)c3nc(-c4c(F)cccc4Cl)c(F)cc23)C[C@H]1C` (atropisomer, axis not shown; (M)) [Example 94-12, (M)-7-(2-Chloro-6-fluoro-phenyl)-4-[(25,5R)-2,5-dimethyl-4-prop-2-enoyl-piperazin-1-yl]-6-fluoro-1-(2-isopropyl-4-methyl-3-pyridyl)pyrido [2,3-d]pyrimidin-2-one]: the IC50 in assay [1] (Homo sapiens, A549, 2 h) was above 7.5 µM; in assay [2], 0.184 µM; in assay [3] (Homo sapiens, MIA PaCa-2, 2 h) it was 0.128 µM.

On to `C=CC(=O)N1C[C@H](C)N(c2nc(=O)n(-c3c(C)ccnc3C(C)C)c3nc(-c4c(F)cccc4C(N)=O)c(F)cc23)C[C@H]1C` (atropisomer, axis not shown; (M)) [Example 94-19, (M)-2-[4-[(2S,5R)-2,5-Dimethyl-4-prop-2-enoyl-piperazin-1-yl]-6-fluoro-1-(2-isopropyl-4-methyl-3-pyridyl)-2-oxo-pyrido[2,3-d]pyrimidin-7-yl]-3-fluoro-benzamide], for which the IC50 in assay [1] (Homo sapiens, A549, 2 h) is above 7.5 µM; in assay [2] it was 0.067 µM; in assay [3] (Homo sapiens, MIA PaCa-2, 2 h), 0.518 µM.

Turning to `C=CC(=O)N1C[C@H](C)N(c2nc(=O)n(-c3c(C)ccnc3C(C)C)c3nc(C4CCCCC4)c(Cl)cc23)C[C@H]1C` (atropisomer, axis not shown; (M)) [Example 95-1, (M)-6-Chloro-7-cyclohexyl-4-[(2S,5R)-2,5-dimethyl-4-prop-2-enoyl-piperazin-1-yl]-1-(2-isopropyl-4-methyl-3-pyridyl)pyrido[2,3-d]pyrimidin-2-one], the IC50 was above 7.5 µM in assay [1], 0.053 µM in assay [2] and 0.318 µM in assay [3].

For `C=CC(=O)N1C[C@H](C)N(c2nc(=O)n(-c3c(C)ccnc3C(C)C)c3nc(C4CCC4)c(Cl)cc23)C[C@H]1C` (atropisomer, axis not shown; (M)) [Example 95-5, (M)-6-chloro-7-cyclobutyl-4-[(2S,5R)-2,5-dimethyl-4-prop-2-enoyl-piperazin-1-yl]-1-(2-isopropyl-4-methyl-3-pyridyl)pyrido [2,3-d]pyrimidin-2-one], the IC50 is above 7.5 µM in assay [1] (Homo sapiens, A549, 2 h); 0.304 µM in assay [2]; 0.611 µM in assay [3] (Homo sapiens, MIA PaCa-2, 2 h).

For the molecule `C=CC(=O)N1C[C@H](C)N(c2nc(=O)n(-c3c(C)ccnc3C(C)C)c3nc(-c4cc(OC(F)(F)F)ccc4F)c(Cl)cc23)C[C@H]1C` (atropisomer, axis not shown; (M)) [Example 124-12, (M)-6-Chloro-4-[(2S,5R)-2,5-dimethyl-4-prop-2-enoyl-piperazin-1-yl]-7-[2-fluoro-5-(trifluoromethoxy)phenyl]-1-(2-isopropyl-4-methyl-3-pyridyl)pyrido[2,3-d]pyrimidin-2-one], the IC50 in assay [1] (Homo sapiens, A549, 2 h) is above 7.5 µM; in assay [2], 0.313 µM; in assay [3] (Homo sapiens, MIA PaCa-2, 2 h), 0.231 µM.
